Measurements: US10569270B2, “Screening kit and method” (CELLPLY S.R.L., priority 2016, dated 2020)
Values belong to the molecule of their own block, whether it stands above or below them.

Tests used:
Jurkat cells = assay: calcium signal (Fluo-4) of Jurkat cells in open microwells after stimulation; assay type: cell-based, human; settings: Fluo-4 labeled Jurkat cells
Method: Cells from the Jurkat cell line (human Leukemic T cells) were obtained from ATCC and cultured in RPMI 1640 medium supplemented with 10% inactivated FBS medium, 10 mM Hepes, 2 mM Ultraglutamine and 1 mM sodium pyruvate, 1% Penicillin/Streptomycin in 25 cm^2 flasks at 37° C. and 5% CO2.
For the assay in open microwells according to the present invention, Jurkat cells were labeled with Fluo-4 20 μM in HBSS, centrifuged and resuspended in serum-free medium (RPMI 1640 with 25 mM Hepes or HBSS) at a concentration of 1.6×10^6 cells/mL in 1.5 mL Eppendorf tubes used as input reservoirs for the open reversed microwell system. Subsequent to the deposition of Jurkat cells in the microwells (approximately 1-10 cells per microwell) and washing the channels with HBSS, the solutions containing Ionomycin (2 μg/mL) or OKT3 (10 μg/mL) are made to flow into specific microchannels of the open microwell system via peristaltic pump. The images were acquired by a camera connected to the microscope at a distance of 1 minute and processed by software developed in LabView, quantifying the dynamic performance of the same signal on each sample cell.

[1] = system: leukemic cell lines (KG-1, Kasumi-1 and HL-60); assay: dose/response analysis of leukemic cell lines to idarubicin in the open reversed microwell system; assay type: cell-based; settings: leukemic cell line (one of KG-1, Kasumi-1, HL-60), FIG. 9C
SU-DHL-4 cancer cells = assay: open well assay of Rituximab on SU-DHL-4 lymphoma cells (Calcein AM / PI, time-lapse); assay type: cell-based; settings: Rituximab 10 μg/mL, hS 1%, PI 5 μM; images up to 60 min; versus CTRL; FIG. 11A
Method: Cells: SU-DHL-4 lymphoma cells and Raji cells were used (ATCC CCL-86). 3·10^5 cells/mL were cultured in RPMI medium supplemented with 10% FBS, 1% […]/streptomycin at 37° C., 95% RH, 5% CO2. The cells were amplified, dividing them when in confluence. PBMC were isolated from blood by centrifugation in gradient. Whole blood from healthy donors was collected into tubes treated with anticoagulants according to the directive “ethical principles and guidelines for the protection of humans in research”. Isolated PBMC were washed twice with 10 mL cold HBSS after lysis of red blood cells. The concentration of cells and their viability was determined with Trypan Blue on haemocytometer. The concentration was adjusted to 1 million cells/mL.
Different batches of SU-DHL-4 or Raji cells were harvested at the peak of their growth, washed with PBS and counted in a hemocytometer with Trypan Blue. The cell concentration was adjusted to 1 million cells/mL and they were labeled with Calcein AM (CAM) 5 nM for flow cytometry and 250 nM for the assay according to the present invention. […] Cell viability was finally assessed by PI and flow cytometry. […]
The images were acquired brightfield (BF) to evaluate the morphological characteristics and then in fluorescence to evaluate the signal in DAPI bands (ex: 360/40 nm, 460/50 nm), FITC (ex: 480/30 nm, em: 535/40 nm), TRITC (ex: 540/25 nm, em: 605/55 nm). […]

Molecule: C[C@H](CCC(=O)O)C[C@H](C)C[C@H](C)C(=O)/C=C(\O)[C@H](C)C[C@H](C)C/C=C/[C@@H](C)[C@@H](O)[C@@H](C)[C@@H](O)C[C@@H]1CC[C@@](C)([C@H]2CC[C@@](C)([C@@H](C)O)O2)O1 [Ionomycin]
average increase of the signal with respect to the baseline (Jurkat cells; Ionomycin 2 μg/mL, series of 10 experiments): 193%+/−139%

Molecule: OKT3: monoclonal antibody purified from OKT3 hybridoma culture supernatant
increase of the signal peak compared to the baseline value (Jurkat cells; OKT3 10 μg/mL, average of a series of 3 experiments): 178%+/−90%

IC50 ([1]; response level: resistant): 213 nM | IC50 ([1]; response level: sensitive on the average): 21.8 nM | IC50 ([1]; response level: sensitive): 4.9 nM
Molecule: CC(=O)[C@]1(O)Cc2c(O)c3c(c(O)c2[C@@H](O[C@H]2C[C@H](N)[C@H](O)[C@H](C)O2)C1)C(=O)c1ccccc1C3=O [idarubicin]

Molecule: RTX: monoclonal antibody Rituximab
dead cells (PI, TRITC channel) in time-lapse images (SU-DHL-4 cancer cells): present only at T2 and T3 in the RTX group
